≈ marks a conversion by molar mass, not a printed value.
Legend:
[1] = test system: Mycolicibacterium smegmatis; assay: Antitubercular activity against Mycobacterium smegmatis mc2155 ATCC 700084 cultured in GAST-Fe media incubated for 24 hrs by resazurin microtiter assay; type: functional
[2] = test system: Mycobacterium tuberculosis; assay: microbe, parasite or virus in culture; conditions: H37Rv ATCC 27294, 192 h
Mycolicibacterium aurum [3] = assay: Antimycobacterial activity against Mycobacterium aurum ATCC 10437 cultured in GAST-Fe media incubated for 72 hrs by resazurin microtiter assay; type: functional
Mycolicibacterium aurum [4] = assay: Antimycobacterial activity against Mycobacterium aurum ATCC 10437 cultured in GAST media incubated for 72 hrs by resazurin microtiter assay; type: functional
[5] = test system: Mycobacterium tuberculosis; assay: microbe, parasite or virus in culture; conditions: H37Rv ATCC 27294, 192 h; remark: listed apart in the source
[6] = test system: Mycolicibacterium smegmatis; assay: Antitubercular activity against Mycobacterium smegmatis mc2155 ATCC 700084 cultured in GAST media incubated for 24 hrs by resazurin microtiter assay; type: functional

| SMILES | MIC90 [1] [µg/mL] | MIC90 [2] [µg/mL] | MIC90 (Mycolicibacterium aurum [3]) [µg/mL] | MIC90 (Mycolicibacterium aurum [4]) [µg/mL] | MIC90 [5] [µg/mL] | MIC90 [6] [µg/mL] |
| --- | --- | --- | --- | --- | --- | --- |
| NC(=S)N1N=C(c2ccccc2O)CC1c1ccccc1 (stereo not given) | 256 (≈ 861 µM) | 4 (≈ 13.5 µM) | 64 (≈ 215 µM) | 64 (≈ 215 µM) | 128 (≈ 430 µM) | 128 (≈ 430 µM) |
| NC(=S)N1N=C(c2ccccc2O)CC1c1ccc(O)cc1 (stereo not given) | > 256 | 64 (≈ 204 µM) | 128 (≈ 408 µM) | 64 (≈ 204 µM) | 256 (≈ 817 µM) | 256 (≈ 817 µM) |
| COc1ccc(C2CC(c3ccccc3O)=NN2)cc1O (stereo not given) | > 256 | 128 (≈ 450 µM) |  |  | 256 (≈ 900 µM) | > 256 |
| Cc1ccc(C2CC(c3ccccc3O)=NN2)cc1 (stereo not given) | 64 (≈ 254 µM) | 8 (≈ 31.7 µM) |  |  | 32 (≈ 127 µM) | 16 (≈ 63.4 µM) |
| CC(=O)N1N=C(c2ccccc2O)CC1c1cccc(F)c1 (stereo not given) | 128 (≈ 429 µM) | 64 (≈ 215 µM) |  |  | 256 (≈ 858 µM) | 128 (≈ 429 µM) |
| CC(=O)N1N=C(c2ccccc2O)CC1c1ccc(O)cc1 (stereo not given) | > 256 | > 256 |  |  | > 256 | > 256 |
| CC(=O)N1N=C(c2ccccc2O)CC1c1ccccc1 (stereo not given) | > 256 | > 256 |  |  | > 256 | > 256 |
| COc1ccccc1C1CC(c2ccccc2O)=NN1C(C)=O (stereo not given) | > 256 | > 256 |  |  | > 256 | > 256 |
| NC(=S)N1N=C(c2ccccc2O)CC1c1ccccc1F (stereo not given) | 128 (≈ 406 µM) | 16 (≈ 50.7 µM) |  |  | 32 (≈ 101 µM) | 128 (≈ 406 µM) |
| Oc1ccccc1C1=NNC(c2ccccc2)C1 (stereo not given) | 128 (≈ 537 µM) | 32 (≈ 134 µM) |  |  | 128 (≈ 537 µM) | 64 (≈ 269 µM) |
| CC(=O)N1N=C(c2ccccc2O)CC1c1cccc(O)c1 (stereo not given) | > 256 | > 256 |  |  | > 256 | > 256 |
| CC(=O)N1N=C(c2ccccc2O)CC1c1ccccc1O (stereo not given) | > 256 | > 256 |  |  | 256 (≈ 864 µM) | > 256 |
| Cc1ccccc1C1CC(c2ccccc2O)=NN1 (stereo not given) | 128 (≈ 507 µM) | 16 (≈ 63.4 µM) |  |  | 64 (≈ 254 µM) | 16 (≈ 63.4 µM) |
| COc1cccc(C2CC(c3ccccc3O)=NN2C(N)=S)c1 (stereo not given) | 256 (≈ 782 µM) | 32 (≈ 97.7 µM) |  |  | 64 (≈ 195 µM) | > 256 |
| CC(=O)N1N=C(c2ccccc2O)CC1c1ccccc1Cl (stereo not given) | 256 (≈ 813 µM) | > 256 |  |  | > 256 | > 256 |
| CC(=O)N1N=C(c2ccccc2O)CC1c1ccccc1C (stereo not given) | 256 (≈ 870 µM) | > 256 |  |  | > 256 | > 256 |
| CC(=O)N1N=C(c2ccccc2O)CC1c1ccc(F)cc1 (stereo not given) | 128 (≈ 429 µM) | 128 (≈ 429 µM) |  |  | 256 (≈ 858 µM) | 128 (≈ 429 µM) |
| COc1ccccc1C1CC(c2ccccc2O)=NN1 (stereo not given) | 128 (≈ 477 µM) | 32 (≈ 119 µM) |  |  | 256 (≈ 954 µM) | 64 (≈ 239 µM) |
| Oc1ccc(C2CC(c3ccccc3O)=NN2)cc1 (stereo not given) | 64 (≈ 252 µM) | 128 (≈ 503 µM) |  |  | > 256 | 32 (≈ 126 µM) |
| Cc1ccccc1C1CC(c2ccccc2O)=NN1C(N)=S (stereo not given) | > 256 | 16 (≈ 51.4 µM) |  |  | 16 (≈ 51.4 µM) | 128 (≈ 411 µM) |
| Oc1ccccc1C1=NNC(c2ccccc2Cl)C1 (stereo not given) | 64 (≈ 235 µM) | 16 (≈ 58.7 µM) |  |  | 32 (≈ 117 µM) | 8 (≈ 29.3 µM) |
| NC(=S)N1N=C(c2ccccc2O)CC1c1cccc(Cl)c1 (stereo not given) | 256 (≈ 771 µM) | 16 (≈ 48.2 µM) |  |  | 32 (≈ 96.4 µM) | 256 (≈ 771 µM) |
| Oc1cccc(C2CC(c3ccccc3O)=NN2)c1 (stereo not given) | 64 (≈ 252 µM) | 64 (≈ 252 µM) |  |  | > 256 | 64 (≈ 252 µM) |
| NC(=S)N1N=C(c2ccccc2O)CC1c1ccccc1O (stereo not given) | 256 (≈ 817 µM) | 256 (≈ 817 µM) |  |  | 256 (≈ 817 µM) | 64 (≈ 204 µM) |
